From US7776847B2, “Benzisothiazoles useful for treating or preventing HCV infection” (priority 2005, dated 2010)

Tested on: HCV replicon
Assay: HCV replicon luciferase reporter assay
Format: cell-based
Details: Hepatitis C virus, Table 5; read-out: IC50
Summary of the method: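 IC50 is the compound amount halving luciferase signal, measured after 24–48 h treatment at various concentrations. Cells carrying the HCV replicon were pre-incubated 24 h at 37° C, 5% CO2 after seeding at about 5,000–7,500 cells/well before dosing.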

| Compound | IC50 |
| --- | --- |
| COc1cccc(-c2cccc(C(=O)NCCCNc3nsc4ccccc34)c2)c1OC [Compound 369, N-(3-(benzo[d]isothiazol-3-ylamino)propyl)-5′,6′-dimethoxybiphenyl-3-carboxamide] | < 5 µM |
| COc1ccc(-c2cccc(C(=O)NCCNc3nsc4ccccc34)c2)cc1OC [Compound 370, N-(2-(benzo[d]isothiazol-3-ylamino)ethyl)-3′,4′-dimethoxybiphenyl-3-carboxamide] | < 5 µM |
| COc1ccc(-c2cccc(C(=O)NCCNc3nsc4ccccc34)c2)cc1 [Compound 371, N-(2-(benzo[d]isothiazol-3-ylamino)ethyl)-4′-methoxybiphenyl-3-carboxamide] | < 5 µM |
| Cc1ccc(-c2cccc(C(=O)NCCNc3nsc4ccccc34)c2)cc1C [Compound 372, N-(2-(benzo[d]isothiazol-3-ylamino)ethyl)-3′,4′-dimethylbiphenyl-3-carboxamide] | < 5 µM |
| O=C(NCCNc1nsc2ccccc12)c1cccc(-c2ccc3ccccc3c2)c1 [Compound 373, N-(2-(benzo[d]isothiazol-3-ylamino)ethyl)-3-(naphthalen-2-yl)benzamide] | < 5 µM |
| O=C(NCCNc1nsc2ccccc12)c1cccc(-c2cccc3cccnc23)c1 [Compound 374, N-(2-(benzo[d]isothiazol-3-ylamino)ethyl)-3-(quinolin-8-yl)benzamide] | < 5 µM |
| O=C(NCCNc1nsc2ccccc12)c1cccc(-c2cnc3ccccc3c2)c1 [Compound 375, N-(2-(benzo[d]isothiazol-3-ylamino)ethyl)-3-(quinolin-3-yl)benzamide] | < 5 µM |
| CC(C)Oc1ccccc1-c1cccc(C(=O)NCCCNc2nsc3ccccc23)c1 [Compound 376, N-(3-(benzo[d]isothiazol-3-ylamino)propyl)-6′-isopropoxybiphenyl-3-carboxamide] | < 5 µM |
| CC(C)Oc1ccccc1-c1ccc(C(=O)NCCNc2nsc3ccccc23)cc1 [Compound 377, N-(2-(benzo[d]isothiazol-3-ylamino)ethyl)-2′-isopropoxybiphenyl-4-carboxamide] | < 5 µM |
| COc1ccc(-c2cccc(C(=O)NCCCNc3nsc4ccccc34)c2)cc1 [Compound 378, N-(3-(benzo[d]isothiazol-3-ylamino)propyl)-4′-methoxybiphenyl-3-carboxamide] | < 5 µM |
| CCCCc1ccc(NC(=O)NCCCNc2nsc3ccccc23)cc1 [Compound 379, 1-(3-(benzo[d]isothiazol-3-ylamino)propyl)-3-(4-butylphenyl)urea] | < 5 µM |
| O=C(NCCCNc1nsc2ccccc12)c1cccc(-c2ccc(Cl)nc2)c1 [Compound 380, N-(3-(benzo[d]isothiazol-3-ylamino)propyl)-3-(6-chloropyridin-3-yl)benzamide] | < 5 µM |
| CCOc1ccc(C)c(-c2cccc(C(=O)NCCCNc3nsc4ccccc34)c2)c1 [Compound 381, N-(3-(benzo[d]isothiazol-3-ylamino)propyl)-3′-ethoxy-6′-methylbiphenyl-3-carboxamide] | < 5 µM |
| COc1ccc(OC)c(-c2cccc(C(=O)NCCCNc3nsc4ccccc34)c2)c1 [Compound 382, N-(3-(benzo[d]isothiazol-3-ylamino)propyl)-3′,6′-dimethoxybiphenyl-3-carboxamide] | < 5 µM |
| CCCOc1cc(F)ccc1-c1cccc(C(=O)NCCCNc2nsc3ccccc23)c1 [Compound 383, N-(3-(benzo[d]isothiazol-3-ylamino)propyl)-4′-fluoro-6′-propoxybiphenyl-3-carboxaimde] | < 5 µM |
| COc1ccccc1-c1cccc(C(=O)NCCCNc2nsc3ccccc23)c1 [Compound 384, N-(3-(benzo[d]isothiazol-3-ylamino)propyl)-6′-methoxybiphenyl-3-carboxamide] | < 5 µM |
| O=C(NCCNc1nsc2ccccc12)c1ccc(-c2ccccc2O)cc1 [Compound 385, N-(2-(benzo[d]isothiazol-3-ylamino)ethyl)-2′-hydroxybiphenyl-4-carboxamide] | < 5 µM |
| O=C(NCCCNc1nsc2ccccc12)c1cccc(I)c1 [Compound 386, N-(3-(benzo[d]isothiazol-3-ylamino)propyl)-3-iodobenzamide] | < 5 µM |
| O=C(NCCCNc1nsc2ccccc12)Nc1ccc(I)cc1 [Compound 387, 1-(3-(benzo[d]isothiazol-3-ylamino)propyl)-3-(4-iodophenyl)urea] | < 5 µM |
| COc1ccc(-c2cccc(C(=O)NCCCNc3nsc4ccccc34)c2)cn1 [Compound 388, N-(3-(benzo[d]isothiazol-3-ylamino)propyl)-3-(6-methoxypyridin-3-yl)benzamide] | < 5 µM |

| Compound | IC50 |
| --- | --- |
| CC(C)(C)OC(=O)N1CC=C(c2cccc(C(=O)NCCCNc3nsc4ccccc34)c2)CC1 [Compound 390, tert-butyl 4-(3-(3-(benzo[d]isothiazol-3-ylamino)propylcarbamoyl)phenyl)-5,6-dihydropyridine-1(2H)-carboxylate] | < 5 µM |
| CCOc1cc(OCC)cc(C(=O)NCCCNc2nsc3ccccc23)c1 [Compound 391, N-(3-(benzo[d]isothiazol-3-ylamino)propyl)-3,5-diethoxybenzamide] | < 5 µM |
| Cc1ccc(OC(C)C)c(-c2ccc(NC(=O)NCCCNc3nsc4ccccc34)cc2)c1 [Compound 392, 1-(3-(benzo[d]isothiazol-3-ylamino)propyl)-3-(2′-isopropoxy-5′-methylbiphenyl-4-yl)urea] | < 5 µM |
| COc1cc(F)ccc1-c1ccc(NC(=O)NCCCNc2nsc3ccccc23)cc1 [Compound 393, 1-(3-(benzo[d]isothiazol-3-ylamino)propyl)-3-(4′-fluoro-2′-methoxybiphenyl-4-yl)urea] | < 5 µM |
| O=C(NCCCNc1nsc2ccccc12)c1cccc(C2=CCNCC2)c1 [Compound 394, N-(3-(benzo[d]isothiazol-3-ylamino)propyl)-3-(1,2,3,6-tetrahydropyridin-4-yl)benzamide] | < 5 µM |
| COc1ccccc1-c1ccc(NC(=O)NCCCNc2nsc3ccccc23)cc1 [Compound 395, 1-(3-(benzo[d]isothiazol-3-ylamino)propyl)-3-(2′-methoxybiphenyl-4-yl)urea] | < 5 µM |
| O=C(NCCCNc1nsc2ccccc12)c1ccc(O)c(Br)c1 [Compound 396, N-(3-(benzo[d]isothiazol-3-ylamino)propyl)-3-bromo-4-hydroxybenzamide] | < 5 µM |
| O=C(NCCCNc1nsc2ccccc12)c1ccc(OCCN2CCOCC2)c(Br)c1 [Compound 397, N-(3-(benzo[d]isothiazol-3-ylamino)propyl)-3-bromo-4-(2-morpholinoethoxy)benzamide] | < 5 µM |
| COc1ccc(-c2ccc(C(=O)NCCCNc3nsc4cccc(S(=O)(=O)NC(C)(C)C)c34)cc2)cc1 [Compound 398, N-(3-(4-(N-tert-butylsulfamoyl)benzo[d]isothiazol-3-ylamino)propyl)-4′-methoxybiphenyl-4-carboxamide] | > 5 µM |
| COc1ccc(-c2ccc(C(=O)NCCCNc3nsc4cc(S(=O)(=O)NC(C)(C)C)ccc34)cc2)cc1 [Compound 399, N-(3-(6-(N-tert-butylsulfamoyl)benzo[d]isothiazol-3-ylamino)propyl)-4′-methoxybiphenyl-4-carboxamide] | > 5 µM |
| COc1ccc(-c2ccc(C(=O)NCCCNc3nsc4c(S(=O)(=O)C(C)(C)C)cccc34)cc2)cc1 [Compound 400, N-(3-(7-(tert-butylsulfonyl)benzo[d]isothiazol-3-ylamino)propyl)-4′-methoxybiphenyl-4-carboxamide] | < 5 µM |
| COc1ccc(-c2ccc(C(=O)NCCCNc3nsc4cccc(S(N)(=O)=O)c34)cc2)cc1 [Compound 401, 4′-methoxy-N-(3-(4-sulfamoylbenzo[d]isothiazol-3-ylamino)propyl)biphenyl-4-carboxamide] | > 5 µM |
| COc1ccc(-c2ccc(C(=O)NCCCNc3nsc4cc(S(N)(=O)=O)ccc34)cc2)cc1 [Compound 402, 4′-methoxy-N-(3-(6-sulfamoylbenzo[d]isothiazol-3-ylamino)propyl)biphenyl-4-carboxamide] | < 5 µM |
| COc1ccc(-c2ccc(CNCCCNc3nsc4ccc(Br)cc34)cc2)cc1 [Compound 404, N^1-(5-bromobenzo[d]isothiazol-3-yl)-N^3-((4′-methoxybiphenyl-4-yl)methyl)propane-1,3-diamine] | < 5 µM |
| COc1ccc(-c2ccc(C(=O)NCCCNc3nsc4ccc(-c5ccccc5)cc34)cc2)cc1 [Compound 405, 4′-methoxy-N-(3-(5-phenylbenzo[d]isothiazol-3-ylamino)propyl)biphenyl-4-carboxamide] | < 5 µM |
| COc1ccc(-c2ccc(C(=O)NCCCNc3nsc4ccc(-c5ccc(OC)cc5)cc34)cc2)cc1 [Compound 406, 4′-methoxy-N-(3-(5-(4-methoxyphenyl)benzo[d]isothiazol-3-ylamino)propyl)biphenyl-4-carboxamide] | < 5 µM |
| COc1ccc(-c2ccc(C(=O)NCCCNc3nsc4ccc(-c5cccc(OC)c5F)cc34)cc2)cc1 [Compound 407, N-(3-(5-(2-fluoro-3-methoxyphenyl)benzo[d]isothiazol-3-ylamino)propyl)-4′-methoxybiphenyl-4-carboxamide] | < 5 µM |
| COc1ccc(-c2ccc(C(=O)NCCCNc3nsc4ccc(-c5ccc(OC(C)C)cc5)cc34)cc2)cc1 [Compound 409, N-(3-(5-(4-isopropoxyphenyl)benzo[d]isothiazol-3-ylamino)propyl)-4′-methoxybiphenyl-4-carboxamide] | < 5 µM |
| COc1ccc(-c2ccc(CNCCCNc3nsc4ccc(-c5ccc(OC)cc5)cc34)cc2)cc1 [Compound 410, N^1-((4′-methoxybiphenyl-4-yl)methyl)-N^3-(5-(4-methoxyphenyl)benzo[d]isothiazol-3-yl)propane-1,3-diamine] | < 5 µM |
| COc1ccc(-c2ccc(CNCCCNc3nsc4ccc(-c5cc(F)cc(F)c5)cc34)cc2)cc1 [Compound 411, N^1-(5-(3,5-difluorophenyl)benzo[d]isothiazol-3-yl)-N^3-((4′-methoxybiphenyl-4-yl)methyl)propane-1,3-diamine] | < 5 µM |
